According to publication PMC9598926, “Design and Synthesis of (Z)-5-(Substituted benzylidene)-3-cyclohexyl-2-thioxothiazolidin-4-one Analogues as Anti-Tyrosinase and Antioxidant Compounds: In Vitro and In Silico Insights” (Antioxidants, 2022):

What was measured:
mushroom tyrosinase [1] = assay: Mushroom tyrosinase activity assay (L-tyrosine as substrate); format: biochemical; conditions: for tyrosinase inhibition relative to kojic acid: fold more than kojic acid; for IC50: mushroom tyrosinase, means ± SEMs of triplicate determinations; for enhancement of tyrosinase inhibitory activity relative to analog 1: versus analog 1
Experimental: 2.2. […] In brief, 20 µL of an aqueous mushroom tyrosinase solution (1000 units/mL) and 170 µL of a substrate mixture containing 345 µM of L-tyrosine and 17.2 mM of sodium phosphate buffer (pH 6.5) were added to wells of a 96-well microplate. […] Amounts of dopachrome produced were assessed by measuring optical densities at 475 nm using a microplate reader (VersaMax®, Molecular Devices, Sunnyvale, CA, USA). […] Experiments were independently conducted three times.

mushroom tyrosinase [2] = assay: Mushroom tyrosinase inhibition in the presence of L-dopa; format: biochemical; conditions: L-dopa as substrate
mushroom tyrosinase [3] = assay: Kinetic studies on mushroom tyrosinase inhibition (Lineweaver–Burk and Dixon plots, L-tyrosine); format: biochemical; conditions: for mode of mushroom tyrosinase inhibition: L-tyrosine as substrate; for Ki: mushroom tyrosinase
Experimental: 2.6. Kinetic Studies on Mushroom Tyrosinase Inhibition by Analogues 2 and 3
Lineweaver–Burk plots of analogues 2 and 3 were used to determine modes of mushroom tyrosinase inhibition in the presence of L-tyrosine as substrate. Briefly, 20 µL of an aqueous mushroom tyrosinase solution (200 units/mL), and 170 µL of an aqueous solution consisting of L-tyrosine at various concentrations (final concentrations: 0, 1, 2, 4, 8, or 16 mM), and sodium phosphate buffer (pH 6.5, final concentration: 14.7 mM) were added to the wells of a 96-well microplate. Subsequently, analogues 2 and 3 at four different concentrations (10 µL; final concentrations 0, 5, 10, or 20 µM in DMSO solution for 2, and concentrations of 0, 1, 2, or 4 µM in DMSO solution for 3) were added to wells. Initial rates of dopachrome formation were determined by measuring changes in absorbance at 475 nm per min (ΔOD475/min) using a microplate reader (VersaMax®, Molecular Devices, Sunnyvale, CA, USA). Maximum velocities (Vmax) were calculated from Lineweaver–Burk plots obtained using six different L-tyrosine concentrations. The modes of mushroom tyrosinase inhibition by the analogs were determined using the locations of plot convergence points.
Lineweaver–Burk double reciprocal plots were used to analyze enzyme’s inhibitory mechanisms. Kinetic studies were conducted using four different concentrations of analogs 2 (0, 5, 10, or 20 μM) and 3 (0, 1, 2, or 4 μM) in the presence of L-tyrosine at five different concentrations (1, 2, 4, 8, or 16 mM).

[4] = DPPH radical scavenging activity assay; conditions: test sample 500 µM, DPPH 0.18 mM, 30 min in the dark
Experimental: 2.11. DPPH Radical Scavenging Activity Assay
The DPPH radical scavenging activities of analogs 1–8 were investigated as previously described with minor modification. L-Ascorbic acid was used as a positive control. In brief, 20 µL of analogs (5 mM) in DMSO or 5 mM L-ascorbic acid in distilled water were mixed with 180 µL of 0.2 mM DPPH in methanol in a 96-well microplate. After the microplate had been stored in the dark for 30 min, optical densities (ODs) were measured at 517 nm using a microplate reader (VersaMax®, Molecular Devices, Sunnyvale, CA, USA). DPPH radical scavenging activities were determined using the following formula:DPPH radical scavenging activity (%) = 100 × (Ac − As)/Ac(1) where Ac indicates the optical density of the non-treated control and As indicates the optical density of test sample. Experiments were conducted independently 3 times.
There is a possibility that compounds with antioxidant properties inhibit the oxidations of tyrosinase substrates, such as L-tyrosine and L-dopa, without interacting with the tyrosinase. Melanin production requires many oxidative processes, including the conversion of L-tyrosine to dopaquinone via L-dopa. Therefore, compounds with antioxidant activity have the potential to inhibit melanogenesis. DPPH (2,2-diphenyl-1-picrylhydrazyl) contains a free radical, and DPPH assays are commonly used to assess antioxidant activity. In this experiment, L-ascorbic acid (an antioxidant) was used as a positive control. The assay was conducted at a test sample and L-ascorbic acid concentration of 500 µM and a DPPH concentration of 0.18 mM. After standing test sample/DPPH mixtures for 30 min in the dark, optical densities were measured to evaluate radical scavenging activities.

[5] = Peroxynitrite (ONOO−) scavenging activity assay (DHR 123, SIN-1); conditions: SIN–1 10 µM; 5, 10, 20 µM
Experimental: 2.14. Peroxynitrite (ONOO^−) Scavenging Activity Assay
Peroxynitrite-scavenging activities were determined as described by Kooy et al. with modification. This method monitors the fluorescence of rhodamine 123, which is formed rapidly when non-fluorescent DHR 123 (dihydrorhodamine 123) (Molecular Probes, Eugene, OR, USA) in the presence of peroxynitrite. The rhodamine buffer solution (pH 7.4) included of 50 mM sodium phosphate, 90 mM sodium chloride, 5 mM potassium chloride, and 100 µM DTPA. The final concentration of DHR 123 was 5 µM. In this assay, the buffer solution was prepared prior to use and then stood on ice. Test compounds (10 µL, final concentrations: 5, 10, and 20 µM) dissolved in DMSO and added to 10 µL SIN-1 (10 µM) and 180 µL rhodamine buffer solution in the wells of a black 96-well plate. Fluorescence intensities of oxidized DHR 123 were measured using a fluorescence plate reader (Berthold Advances GmbH & Co., Bad Wildbad, Germany) with an excitation and emission wavelengths of 485 and 535 nm, respectively. Peroxynitrite scavenging activity was calculated after subtracting background fluorescence from final fluorescence intensity. Results are expressed as means ± standard deviation (SD), and L-penicillamine was used as a positive control.
Several RNS (reactive nitrogen species), including peroxynitrite (ONOO^–) and nitric oxide, are known to be involved in the induction of the melanogenesis. Therefore, we investigated the effects of analogs 1–8 on peroxynitrite scavenging activity using DHR123 (dihydrorhodamine) as a ROS indicator and SIN–1 as an RNS generator. Peroxynitrite generated by SIN–1 oxidizes DHR123 to rhodamine 123, a fluorescent compound. Thus, the effects of analogs on peroxynitrite scavenging ability were determined by measuring rhodamine 123 fluorescence.

| SMILES | tyrosinase inhibition relative to kojic acid (mushroom tyrosinase [1]) | IC50 (mushroom tyrosinase [1]) | enhancement of tyrosinase inhibitory activity relative to analog 1 (mushroom tyrosinase [1]) | IC50 (mushroom tyrosinase [2]) | mode of mushroom tyrosinase inhibition (mushroom tyrosinase [3]; Lineweaver–Burk plots) | Vmax (mushroom tyrosinase [3]; Lineweaver–Burk plots, L-tyrosine, independent of analog 2 concentration (0, 5, 10, 20 µM)) | Ki (mushroom tyrosinase [3]; L-tyrosine) | DPPH radical scavenging activity [4] | peroxynitrite scavenging compared with penicillamine [5] | Km (mushroom tyrosinase [3]; Lineweaver–Burk plots, L-tyrosine, independent of analog 3 concentration (0, 1, 2, 4 µM)) |
| --- | --- | --- | --- | --- | --- | --- | --- | --- | --- | --- |
| O=C1/C(=C/c2ccc(O)c(O)c2)SC(=S)N1C1CCCCC1 [Analog 2, (Z)-3-Cyclohexyl-5-(3,4-dihydroxybenzylidene)-2-thioxothiazolidin-4-one] | 5 fold | 5.21 ± 0.86 µM | 13 fold | 39.7 ± 3.43 µM | competitively | 0.00343 mM/min | 2220 nM | 92% | much more potently than penicillamine |  |
| O=C1/C(=C/c2ccc(O)cc2O)SC(=S)N1C1CCCCC1 [Analog 3, (Z)-3-Cyclohexyl-5-(2,4-dihydroxybenzylidene)-2-thioxothiazolidin-4-one] | 25 fold | 1.03 ± 0.14 µM | 63 fold | 10.6 ± 2.92 µM | non-competitive |  | 1270 nM | 73% | much more potently than penicillamine | 2.81 mM |
